Results reported in patent US9221809B2 (MERCK SHARP & DOHME CORP., priority 2011, dated 2015).
Where a name gives a salt, the structure may show the parent alone.

What follows are molecules tested against IRAK4 (Homo sapiens (Human), UniProt Q9NWZ3) (assay: IRAK4 kinase activity, IMAP fluorescence polarization assay). Conditions: 100 μM ATP, 0.5 nM GST tagged IRAK4; read-out: IRAK4 IC50.
Chain of IRAK4 (Q9NWZ3 whole entry): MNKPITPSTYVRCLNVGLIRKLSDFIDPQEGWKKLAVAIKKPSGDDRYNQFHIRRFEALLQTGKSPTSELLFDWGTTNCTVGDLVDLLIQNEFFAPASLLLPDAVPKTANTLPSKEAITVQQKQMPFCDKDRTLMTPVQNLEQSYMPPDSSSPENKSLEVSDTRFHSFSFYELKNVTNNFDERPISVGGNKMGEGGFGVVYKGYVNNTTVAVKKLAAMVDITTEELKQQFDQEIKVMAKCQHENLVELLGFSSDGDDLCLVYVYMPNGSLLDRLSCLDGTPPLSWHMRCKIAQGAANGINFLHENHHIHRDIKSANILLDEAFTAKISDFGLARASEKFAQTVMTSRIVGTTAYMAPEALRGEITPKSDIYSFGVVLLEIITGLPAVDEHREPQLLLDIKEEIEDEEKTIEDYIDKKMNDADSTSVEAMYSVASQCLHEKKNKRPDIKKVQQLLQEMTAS
Type: biochemical
Description: The kinase activity of IRAK4 is determined by its ability to catalyze the phosphorylation of a fluorescent polypeptide substrate. The extent of phosphorylation is measured using IMAP technology (Molecular Devices) where the phosphorylated fluorescent substrate binds to the large M(III)-based nanoparticles which reduces the rotational speed of the substrate and thus increases its fluorescent polarization (FP).
Assay Procedure: A 20 μl reaction mixture contains 10 mM TriHCl, pH 7.2, 0.5 nM GST tagged IRAK4 (SignalChem), 100 nM fluorescent peptide substrate (RP7030, Molecular Devices), 100 μM ATP, 1 mM DTT, 1 mM MgCl2, and 0.01% Tween 20. The reaction is initiated by the addition of ATP. After incubation for 30 minutes at 25° C., 60 μl of Progressive IMAP Reagent (Molecular Devices) is added to stop the reaction. Change in RP7030's FP is determined by a FP reader (Analyst HT, LJL BioSystems)
An IC50 of 4260 nM was found for `O=c1[nH]c(N[C@H]2CCCNC2)nc(N[C@@H]2C[C@H](CO)[C@@H](O)[C@H]2O)c1-c1nc2ccccc2s1` [Example 39, 5-(Benzo[d]thiazol-2-yl)-6-(((1R,2S,3R,4R)-2,3-dihydroxy-4-(hydroxymethyl)cyclopentyl)amino)-2-((S)-piperidin-3-ylamino)pyrimidin-4(3H)-one.HCl] in this work.
An IC50 of 8.6 nM was found for `O=c1[nH]c(N2CCCCC2)nc(N[C@@H]2CCCNC2)c1-c1nc2c(C3CC3)nccc2s1` [Example 117, (R)-5-(4-cyclopropylthiazolo[4,5-c]pyridin-2-yl)-2-(piperidin-1-yl)-6-(piperidin-3-ylamino)pyrimidin-4(3H)-one.HCl] in this work.
An IC50 of 12 nM was found for `O=c1[nH]c(N2CCOCC2)nc(N[C@@H]2CCCNC2)c1-c1csc(-n2cccc2)n1` [Example 214, (R)-5-(2-(1H-pyrrol-1-yl)thiazol-4-yl)-2-morpholino-6-(piperidin-3-ylamino)pyrimidin-4(3H)-one] in this work.
An IC50 of 8 nM was found for `O=c1[nH]c(N2CCOCC2)nc(N[C@@H]2CCCNC2)c1-c1nc2cc(Cl)ccc2s1` [Example 343, (R)-5-(5-chlorobenzo[d]thiazol-2-yl)-2-morpholino-6-(piperidin-3-ylamino)pyrimidin-4(3H)-one] in this work.
An IC50 of 9.5 nM was found for `O=c1[nH]c(N2CCOCC2)nc(N[C@@H]2C[C@H](CO)[C@@H](O)[C@H]2O)c1-c1ccc2ccccc2n1` [Example 18, 6-((1R,2S,3R,4R)-2,3-Dihydroxy-4-(hydroxymethyl)cyclopentylamino)-2-morpholino-5-(quinolin-2-yl)pyrimidin-4(3H)-one.HCl] in this work.
An IC50 of 5.7 nM was found for `Cc1nccc2sc(-c3c(N[C@@H]4CCCNC4)nc(N4CCOCC4)[nH]c3=O)nc12` [Example 99, (R)-5-(4-Methylthiazolo[4,5-c]pyridin-2-yl)-2-morpholino-6-(piperidin-3-ylamino)pyrimidin-4(3H)-one.HCl] in this work.

Same assay, conditions: 100 μM ATP; read-out: IC50
An IC50 of 720 nM was found for `CN1CCCC(Nc2nc(N3CCOCC3)[nH]c(=O)c2-c2ccc3ccccc3n2)C1` (centres unmarked) [Example 274, 6-[(1-methylpiperidin-3-yl)amino]-2-(morpholin-4-yl)-5-(quinolin-2-yl)-3,4-dihydropyrimidin-4-one] in this work.
An IC50 of 55 nM was found for `O=c1[nH]c(N2CCOCC2)nc(NCCN2CCNCC2)c1-c1nc2ccccc2s1` [Example 256, 5-(1,3-benzothiazol-2-yl)-2-(morpholin-4-yl)-6-[[2-(piperazin-1-yl)ethyl]amino]-3,4-dihydropyrimidin-4-one] in this work.
An IC50 of 2800 nM was found for `O=c1[nH]c(N2CCOCC2)nc(NCCN2CCCCC2)c1-c1ccc2ccccc2n1` [Example 278, 2-(morpholin-4-yl)-6-[[2-(piperidin-1-yl)ethyl]amino]-5-(quinolin-2-yl)-3,4-dihydropyrimidin-4-one] in this work.
An IC50 of 570 nM was found for `CC1CC(C)CN(c2nc(N[C@@H]3CCCNC3)c(-c3nc4ccccc4s3)c(=O)[nH]2)C1` (stereo partly drawn) [Example 296, 5-(1,3-benzothiazol-2-yl)-2-(3,5-dimethylpiperidin-1-yl)-6-[[(3R)-piperidin-3-yl]amino]-3,4-dihydropyrimidin-4-one trifluoroacetic acid] in this work.
An IC50 of 450 nM was found for `O=c1[nH]c(C2CCN(C3CCCCC3)CC2)nc(N[C@@H]2CCCNC2)c1-c1nc2ccccc2s1` [Example 232, (R)-5-(1,3-benzothiazol-2-yl)-2-(1-cyclo-hexylpiperidin-4-yl)-6-[(piperidin-3-yl)amino]-3,4-dihydropyrimidin-4-one] in this work.
An IC50 of 71 nM was found for `O=c1[nH]c(N2CCCCC2)nc(N[C@@H]2CCCNC2)c1-c1nc2ccccc2s1` [Example 309, 5-(1,3-benzothiazol-2-yl)-2-(piperidin-1-yl)-6-[[(3R)-piperidin-3-yl]amino]-3,4-dihydropyrimidin-4-one hydrochloride] in this work.
An IC50 of 240 nM was found for `NC1CCN(c2nc(N[C@@H]3CCCNC3)c(-c3nc4ccccc4s3)c(=O)[nH]2)CC1` [Example 322, 2-(4-aminopiperidin-1-yl)-5-(1,3-benzothiazol-2-yl)-6-[[(3R)-piperidin-3-yl]amino]-3,4-dihydropyrimidin-4-one; trifluoroacetic acid] in this work.
An IC50 of 23 nM was found for `O=c1[nH]c(N2CC[C@H](O)C2)nc(N[C@@H]2CCCNC2)c1-c1nc2ccccc2s1` [Example 306, 5-(benzo[d]thiazol-2-yl)-2-((S)-3-hydroxy-pyrrolidin-1-yl)-6-((R)-piperidin-3-ylamino)pyrimidin-4(3H)-one bis(2,2,2-trifluoro-acetate)] in this work.
An IC50 of 3000 nM was found for `N[C@H]1C[C@H]1Nc1nc(N2CCOCC2)[nH]c(=O)c1-c1nc2ccccc2s1` [Example 247, 6-[[(1R,2S)-2-amino-cyclopropyl]amino]-5-(1,3-benzothiazol-2-yl)-2-(morpholin-4-yl)-3,4-dihydropyrimidin-4-one] in this work.
An IC50 of 730 nM was found for `O=c1[nH]c(C2CCN(C3CCC3)CC2)nc(N[C@@H]2CCCNC2)c1-c1nc2ccccc2s1` [Example 230, (R)-5-(1,3-benzothiazol-2-yl)-2-[1-cyclo-butylpiperidin-4-yl)-6-[(piperidin-3-yl)amino]-3,4-dihydropyrimidin-4-one] in this work.

Same assay, conditions: 100 μM ATP; read-out: IRAK4 IC50
An IC50 of 139 nM was found for `O=c1[nH]c(N2CC3CC2CS(=O)(=O)C3)nc(N[C@@H]2CCCNC2)c1-c1ccc2ccccc2n1` (stereo partly drawn) [Example 174, 2-(3,3-dioxido-3-thia-6-azabicyclo[3.2.1]octan-6-yl)-6-((R)-piperidin-3-ylamino)-5-(quinolin-2-yl)pyrimidin-4(3H)-one] in this work.
An IC50 of 11 nM was found for `CS(=O)(=O)c1ccc(N2CCN(c3nc(N[C@@H]4CCCNC4)c(-c4nc5ccccc5s4)c(=O)[nH]3)CC2)c(Cl)c1` [Example 147, (R)-5-(benzo[d]thiazol-2-yl)-2-(4-(2-chloro-4-(methylsulfonyl)phenyl)piperazin-1-yl)-6-(piperidin-3-ylamino)pyrimidin-4(3H)-one] in this work.
An IC50 of 21 nM was found for `O=c1[nH]c(N2CCOCC2)nc(N[C@@H]2CCCNC2)c1-c1nc(-c2ccccn2)cs1` [Example 207] in this work.
An IC50 of 27 nM was found for `O=c1[nH]c(N2CCN(c3ccccc3Cl)CC2)nc(N[C@@H]2CCCNC2)c1-c1nc2ccccc2s1` [Example 151, (R)-5-(benzo[d]thiazol-2-yl)-2-(4-(2-chlorophenyl)piperazin-1-yl)-6-(piperidin-3-ylamino)pyrimidin-4(3H)-one] in this work.
An IC50 of 34 nM was found for `O=c1[nH]c(N2CC3CC3C2)nc(N[C@@H]2CCCNC2)c1-c1ccc2ccccc2n1` (stereo partly drawn) [Example 168, 2-(3-azabicyclo[3.1.0]hexan-3-yl)-6-((R)-piperidin-3-ylamino)-5-(quinolin-2-yl)pyrimidin-4(3H)-one] in this work.
An IC50 of 537 nM was found for `CC(C)(C)c1cccc(-c2c(N[C@@H]3CCCNC3)nc(N3CCOCC3)[nH]c2=O)n1` [Example 197] in this work.
An IC50 of 431 nM was found for `C[C@H]1COCCN1c1nc(N[C@@H]2CCCNC2)c(-c2nc3ccccc3s2)c(=O)[nH]1` [Example 128] in this work.
An IC50 of 4760 nM was found for `O=c1[nH]c(N2CCOCC2)nc(N[C@@H]2CCCNC2)c1-c1ccccn1` [Example 199] in this work.
An IC50 of 145 nM was found for `CC1(C)CN(c2nc(N[C@@H]3CCCNC3)c(-c3nc4ccccc4s3)c(=O)[nH]2)CCO1` [Example 131, (R)-5-(benzo[d]thiazol-2-yl)-2-(2,2-dimethylmorpholino)-6-(piperidin-3-ylamino)pyrimidin-4(3H)-one] in this work.
An IC50 of 10 nM was found for `COc1cccc(N2CCN(c3nc(N[C@@H]4CCCNC4)c(-c4nc5ccccc5s4)c(=O)[nH]3)CC2)n1` [Example 143, (R)-5-(benzo[d]thiazol-2-yl)-2-(4-(6-methoxypyridin-2-yl)piperazin-1-yl)-6-(piperidin-3-ylamino)pyrimidin-4(3H)-one] in this work.
